The target in test [1] is T1, [^3 H]BFI binding sites (I2 binding site) (Homo sapiens, UniProt P27338).
T1 construct: Frozen sections of human cortex (Brodman's areas 8,9,10), human medulla; from tissue; host or cells: P2 membranes of human cortex (Brodmann areas 8, 9, 10) and human medulla (NRL)
T1 sequence (P27338 2-520 limits assumed): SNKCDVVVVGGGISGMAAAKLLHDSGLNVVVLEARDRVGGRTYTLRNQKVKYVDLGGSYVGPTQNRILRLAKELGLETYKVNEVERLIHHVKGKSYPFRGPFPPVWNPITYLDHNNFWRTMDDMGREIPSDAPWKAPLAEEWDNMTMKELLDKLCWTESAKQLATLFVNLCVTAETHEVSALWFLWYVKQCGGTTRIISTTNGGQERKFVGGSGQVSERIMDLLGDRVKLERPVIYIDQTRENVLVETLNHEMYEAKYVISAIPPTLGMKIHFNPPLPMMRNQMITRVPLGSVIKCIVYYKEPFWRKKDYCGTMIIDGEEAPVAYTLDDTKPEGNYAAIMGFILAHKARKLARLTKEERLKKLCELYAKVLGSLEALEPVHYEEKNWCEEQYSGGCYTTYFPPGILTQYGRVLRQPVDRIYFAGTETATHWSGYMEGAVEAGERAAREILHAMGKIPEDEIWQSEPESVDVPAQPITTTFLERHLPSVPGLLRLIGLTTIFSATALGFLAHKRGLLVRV
Kind of test: Ligand competition for [^3 H]BFI binding in human cortex. As to conditions: for Affinity in competition for [^3 H]BFI binding: human brain. As for the experimental part:
(§1) Membrane fractions were isolated at 4° C. using differential centrifugation as follows: Homogenates were centrifuged at 500×g to remove nuclei and cell debris followed by 45,000×g to obtain the P2 membrane fraction. The P2 pellet was washed twice with 50 mM Tris-HCl buffer. Between washes the pellet resuspension was incubated for 30 min at 25° C. to allow dissociation of endogenous ligands from their receptors. The final pellet was resuspended in 50 mM Tris-HCl, pH 7.5, and stored at -70° C. until used.
(§2) Binding data were calculated as fmol bound ligand/mg protein. Protein was determined by the Lowry method. Binding constants were calculated by nonlinear curve fitting (Lundon Software) and the fit to a one or two site model was tested using two-way ANOVA. Relative MAO activity was calculated as CPM/mg protein/min or moles/mg protein/min.

The next test has as its system MAO. In kind it is biochemical, human. As for the experimental part: MAO activity was measured with [^14 C]tyramine as substrate using a modification of the method by Yu [P. H. YU, Neuromethods, Neurotransmitter Enzymes, A. A. Boulton, G. B. Baker and P. H. Yu, 235-272, Humana Press, Clifton, N.J. (1986))]. Membranes were incubated with [^14 C]tyramine (0.5 mM) at 21° C., pH 7.4 for 40 min. Enzyme activity was stopped by lowering pH to 1.0 with 2 M HCl. The radiolabeled products of MAO degradation (p-hydroxyphenylacetic acid and p-hydroxymandelic acid) were then extracted into toluene ethyl acetate by vortexing for 15 min and aliquots of the organic phase counted. Extraction was enhanced by the addition of a 1 mg/ml carrier concentration of both products and saturating concentration of NaCl.
as §2
Data are mean±SEM of 3 experiments. […] The data is depicted in FIG. 5.
Data are expressed as percent of maximum binding or MAO activity and represent the mean±SEM of 3 experiments. […] The data is depicted in FIG. 6.

Another test addresses I2 sites. As to conditions: read-out: KD of [^3 H]BFI binding; rabbit cortex, previously reported; cited from earlier work.
Test [2] concerns the target [^3 H]BFI binding sites (I2 binding site). Kind of test: Ligand competition for [^3 H]BFI binding in human cortex. To be noted: human cortex, 8 nM [^3 H]BFI, two-site fit. As to the method:
as §1, §2

In a further test the test system is rat liver MAO A. As to conditions: cited from earlier work.
Another test relates to rat liver MAO B. To be noted: cited from earlier work.

SMILES strings stand for the structures. Where “and” joins values, the source holds several entries; their conditions need not be identical. Equal values may be shown once. Read-outs that look alike come from different tables or passages of the source.

Turning to `N=C(N)NC(=O)c1nc(Cl)c(N)nc1N` [amiloride], the “Affinity in competition for [^3 H]BFI binding” value (“Affinity in competition” for short) in test [1] was “low affinity”.

Regarding `C#CCN(C)Cc1ccccc1` [pargyline], in the test with MAO (preincubation with 10 μM pargyline, all durations (10, 30, 60 min)), the “Inhibition of basal MAO activity” value is > 90% and 90%.

The term Ki denotes the equilibrium dissociation constant of an inhibitor or competing ligand from its target. As for `N=C(N)N/N=C/c1c(Cl)cccc1Cl` [guanabenz], in test [1], the Ki worked out at 72.5 ± 24 nM and the “Affinity in competition” value is “high affinity”.

For `COc1nc(C)nc(Cl)c1N=C1NCCN1` [moxonidine], the “Affinity in competition” value in test [1] is recorded as “low affinity”.

Turning to `N[C@@H]1C[C@H]1c1ccccc1` (relative stereo) [TCP, Tranylcypromine], the “Inhibition of MAO activity” value with MAO (1 μM TCP preincubation (maximal potentiation of binding)) turned out to be 80%. Moreover, in the test on MAO (40 min preincubation, washed), the “TCP concentration of maximal inhibition of MAO activity” value came out at 3 µM. Moreover, the “Maximal inhibition of MAO activity” value in the test with MAO (TCP concentrations >3 μM) came to 95%. Also, the “Potentiation of BFI binding in guinea pig tissues by TCP” value with BFI binding sites is on record as “not seen”.

For `c1ccc(C2CC2)c(OCC2=NCCN2)c1` [cirazoline], in test [1], affinity was put at a Ki of 13 ± 4.5 nM and the “Affinity in competition” value is reported as “high affinity”.

What is called Kd is the free concentration of one partner at which half of the binding sites on the other are occupied at equilibrium, for simple one-to-one binding. For the compound `c1ccc2oc(C3=NCCN3)cc2c1` [[^3 H]BFI, 2-(2-benzofuranyl)-2-imidazoline], the Kd on I2 sites was 2.7 nM.

On to `Clc1cccc(Cl)c1N=C1NCCN1` [clonidine], for which the “Affinity in competition” value in test [1] is “low affinity”. In addition, the Ki in test [2] (read-out: Ki for competition of [^3 H]BFI binding, two-site model, first (high-affinity) value) stood at 73.4 ± 24.6 nM; in test [2] (read-out: Ki for competition of [^3 H]BFI binding, two-site model, second (low-affinity) value), 86300 ± 11100 nM.

In test [1], `c1ccc2c(c1)OCC(C1=NCCN1)O2` (stereo not drawn) [idazoxan] came in with a Ki of 80.4 ± 17 nM. Also, the “Inhibition of rat liver MAO A” value in the test with rat liver MAO A is listed as “not”.

As to `COC1(C2=NCCN2)COc2ccccc2O1` (stereo not drawn) [RX821002], in test [1], the affinity corresponds to a Ki of 9400 ± 1800 nM and the “Affinity in competition” value is on record as “low affinity”.

For the compound `c1ccc2oc(C3=NCCN3)cc2c1` [BFI, 2-(2-benzofuranyl)-2-imidazoline], in the test on rat liver MAO A, the “Inhibition of rat liver MAO A” value is “inhibits”. Besides, in the test on rat liver MAO B, the “Inhibition of rat liver MAO B” value is listed as “inhibits”.

The values above are taken from US5914235A (Eli Lilly and Company, priority 1997, dated 1999).
